The values below come from US11337964B2, “Isoindoline derivative, pharmaceutical composition and use thereof” (Kangpu Biopharmaceuticals, Ltd., priority 2017, dated 2022).

As a reminder, the IC50 is the point on the concentration scale where inhibition reaches its midpoint. Low readings indicate greater potency in that assay, high ones weaker potency in that assay.

Holding throughout (format): biochemical
What all share (conditions): FAM-cAMP substrate, 30 minutes at room temperature

Assay [1] has as its target T1, PDE4A1A (Homo sapiens, UniProt P27815).
T1 construct: purchased BPS 60040
Nature of the assay: PDE4 activity inhibition assay, PDE4A1A. The protocol:
(§1) The IC50 value of the inhibitory effect of the compound on PDE4A1A, PDE4B1 and PDE4D3 was tested.
(§2) Positive compound: Trequinsin (Sigma, Cat. No. T2057).
(§3) Equipment: Wallac Victor Multi-label counter (Perkin Elmer).
(§4) I. Preparing 1× reaction liquid and termination liquid;
(§5) II. PDE enzymatic reaction; • 1) The PDE was dissolved in 1× reaction solution to form 2× enzyme solution. • 2) FAM-cAMP was dissolved in 1× reaction solution to form 2× substrate solution. • 3) Echo 550 was used to transfer the corresponding volume of the compound in DMSO solution to the reaction plate. • 4) 2× enzyme solution was added into the corresponding well of the reaction plate and incubated with the compound solution at room temperature for 15 minutes. • 5) 2× substrate solution was added into the corresponding well of the reaction plate to initiate the reaction. • 6) Reaction plate was incubated at room temperature for 30 minutes and terminated by adding termination liquid, then incubated at room temperature for 60 minutes.
(§6) The inhibition rate was calculated by Excel; IC50 was calculated by GraphPad Prism.

Assay [2] concerns the target T2, PDE4B1 (Homo sapiens, UniProt Q07343).
T2 construct: purchased BPS 60041
The experiment in a line: PDE4 activity inhibition assay, PDE4B1. How it is done:
as §1, §2, §3, §4, §5, §6

Assay [3] has as its target T3, PDE4D3 (Homo sapiens, UniProt Q08499).
T3 construct: purchased BPS 60046
Nature of the assay: PDE4 activity inhibition assay, PDE4D3. How it is done:
as §1, §2, §3, §4, §5, §6

T3 sequence (Q08499 1-673 isoform Q08499-2): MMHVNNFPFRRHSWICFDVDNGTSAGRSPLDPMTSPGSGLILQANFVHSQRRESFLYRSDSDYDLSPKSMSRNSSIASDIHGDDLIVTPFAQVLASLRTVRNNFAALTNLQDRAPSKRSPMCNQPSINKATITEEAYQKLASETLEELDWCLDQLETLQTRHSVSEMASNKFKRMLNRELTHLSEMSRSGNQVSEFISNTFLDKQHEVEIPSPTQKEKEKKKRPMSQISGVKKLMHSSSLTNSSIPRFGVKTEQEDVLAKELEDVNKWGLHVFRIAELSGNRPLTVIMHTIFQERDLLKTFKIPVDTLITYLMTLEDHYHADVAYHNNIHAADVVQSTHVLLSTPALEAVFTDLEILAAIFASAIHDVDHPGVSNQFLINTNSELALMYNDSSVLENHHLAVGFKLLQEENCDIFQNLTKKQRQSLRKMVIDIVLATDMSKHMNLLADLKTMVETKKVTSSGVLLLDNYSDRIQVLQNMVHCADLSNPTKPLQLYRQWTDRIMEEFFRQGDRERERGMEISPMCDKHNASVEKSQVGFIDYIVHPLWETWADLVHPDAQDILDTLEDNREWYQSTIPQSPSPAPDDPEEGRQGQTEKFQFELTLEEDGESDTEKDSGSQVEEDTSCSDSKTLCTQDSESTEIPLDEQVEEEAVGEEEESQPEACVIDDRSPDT
T2 sequence (Q07343 whole entry): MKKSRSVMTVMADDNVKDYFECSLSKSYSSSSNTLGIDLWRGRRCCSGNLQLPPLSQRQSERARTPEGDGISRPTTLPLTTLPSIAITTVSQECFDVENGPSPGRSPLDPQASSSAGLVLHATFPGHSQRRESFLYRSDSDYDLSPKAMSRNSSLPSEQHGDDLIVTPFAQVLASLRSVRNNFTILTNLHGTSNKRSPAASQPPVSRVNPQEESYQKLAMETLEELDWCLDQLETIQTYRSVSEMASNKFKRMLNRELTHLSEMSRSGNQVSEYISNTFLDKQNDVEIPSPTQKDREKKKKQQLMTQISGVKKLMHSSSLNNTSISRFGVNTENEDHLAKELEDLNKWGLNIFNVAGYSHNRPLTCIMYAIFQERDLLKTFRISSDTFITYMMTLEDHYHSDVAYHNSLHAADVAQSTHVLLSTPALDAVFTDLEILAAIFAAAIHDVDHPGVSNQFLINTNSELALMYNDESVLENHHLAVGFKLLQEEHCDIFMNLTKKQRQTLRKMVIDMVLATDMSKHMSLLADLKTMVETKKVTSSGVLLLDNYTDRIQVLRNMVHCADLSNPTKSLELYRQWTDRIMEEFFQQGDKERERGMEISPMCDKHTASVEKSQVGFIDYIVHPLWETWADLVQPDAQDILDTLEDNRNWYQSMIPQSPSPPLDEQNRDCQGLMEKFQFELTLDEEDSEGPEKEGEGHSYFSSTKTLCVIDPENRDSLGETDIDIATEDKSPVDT
T1 sequence (P27815 1-647 isoform P27815-4): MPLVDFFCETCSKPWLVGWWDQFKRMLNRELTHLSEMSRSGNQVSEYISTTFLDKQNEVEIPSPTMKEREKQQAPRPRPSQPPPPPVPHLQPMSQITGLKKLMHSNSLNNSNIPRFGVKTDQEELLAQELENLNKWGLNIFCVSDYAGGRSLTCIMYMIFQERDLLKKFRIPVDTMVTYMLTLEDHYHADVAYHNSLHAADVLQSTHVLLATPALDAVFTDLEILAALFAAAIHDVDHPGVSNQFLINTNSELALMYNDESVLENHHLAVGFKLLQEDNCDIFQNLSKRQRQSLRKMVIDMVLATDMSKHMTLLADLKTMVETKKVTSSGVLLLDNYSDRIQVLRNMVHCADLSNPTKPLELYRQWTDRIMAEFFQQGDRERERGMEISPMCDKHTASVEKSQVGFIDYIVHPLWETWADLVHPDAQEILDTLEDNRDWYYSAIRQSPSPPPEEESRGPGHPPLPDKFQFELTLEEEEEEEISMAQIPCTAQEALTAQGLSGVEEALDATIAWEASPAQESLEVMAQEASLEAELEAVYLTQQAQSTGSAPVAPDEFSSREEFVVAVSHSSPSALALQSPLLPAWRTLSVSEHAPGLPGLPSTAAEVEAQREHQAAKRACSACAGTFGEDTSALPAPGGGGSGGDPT

As to `CCOc1cc(C(CS(C)(=O)=O)N2C(=O)c3nccc(NC(C)=O)c3C2=O)ccc1OC` (stereo not drawn) [Compound 601, N-(6-(1-(3-ethoxy-4-methoxyphenyl)-2-(methylsulfonyl)ethyl)-5,7-dioxo-6,7-dihydro-5H-pyrrolo[3,4-b]pyridin-4-yl)acetamide], the IC50 was 273 nM in assay [1], 390 nM in assay [2] and 201 nM in assay [3].

Regarding `CCOc1nc(C(CS(C)(=O)=O)N2C(=O)c3cccc(NC(C)=O)c3C2=O)ccc1OC` (stereo not drawn) [Compound 701, N-(2-(1-(6-ethoxy-5-methoxypyridin-2-yl)-2-(methylsulfonyl)ethyl)-1,3-dioxoisoindolin-4-yl)acetamide], the IC50 in assay [1] worked out at 2.5 nM; in assay [2], 3.5 nM; in assay [3] it was 2.1 nM.

As to `CCOc1nc([C@H](CS(C)(=O)=O)N2C(=O)c3cccc(NC(C)=O)c3C2=O)ccc1OC` [Compound 703, (R)—N-(2-(1-(6-ethoxy-5-methoxypyridin-2-yl)-2-(methylsulfonyl)ethyl)-1,3-dioxoisoindolin-4-yl)acetamide], the IC50 in assay [1] is 30 nM; in assay [2] it was 55 nM; in assay [3] it was 20 nM.

`CCOc1nc([C@H](CS(C)(=O)=O)N2C(=O)c3c(F)ccc(NC(C)=O)c3C2=O)ccc1OC` [Compound 706, (R)—N-(2-(1-(6-ethoxy-5-methoxypyridin-2-yl)-2-(methylsulfonyl)ethyl)-7-fluoro-1,3-dioxoisoindolin-4-yl)acetamide]: the IC50 in assay [1] was 6.5 nM; in assay [2] it was 18 nM; in assay [3] it was 4 nM.

Consider `CCOc1nc([C@H](CS(C)(=O)=O)N2C(=O)c3cc(F)cc(NC(C)=O)c3C2=O)ccc1OC` [Compound 709, (R)—N-(2-(1-(6-ethoxy-5-methoxypyridin-2-yl)-2-(methylsulfonyl)ethyl)-6-fluoro-1,3-dioxoisoindolin-4-yl)acetamide], for which the results for the IC50 in assay [1], in assay [2] and in assay [3] were 17 nM, 32 nM and 11 nM, respectively.

As for `[2H]C([2H])([2H])Oc1ccc([C@@H](CS(C)(=O)=O)N2C(=O)c3cccc(NC(C)=O)c3C2=O)nc1OCC` [Compound 711, (S)—N-(2-(1-(6-ethoxy-5-d3-methoxypyridin-2-yl)-2-(methylsulfonyl)ethyl)-1,3-dioxoisoindolin-4-yl)acetamide], the IC50 in assay [1] amounted to 1.1 nM; in assay [2], 5.1 nM; in assay [3] it was 2 nM.

Consider `[2H]C([2H])([2H])Oc1ccc([C@H](CS(C)(=O)=O)N2C(=O)c3cccc(NC(C)=O)c3C2=O)nc1OCC` [Compound 712, (R)—N-(2-(1-(6-ethoxy-5-d3-methoxypyridin-2-yl)-2-(methylsulfonyl)ethyl)-1,3-dioxoisoindolin-4-yl)acetamide], for which the IC50 in assay [1] was 32.6 nM; in assay [2] it was 82.8 nM; in assay [3], 29 nM.

As for `[2H]C([2H])([2H])Oc1ccc([C@@H](CS(C)(=O)=O)N2C(=O)c3c(F)ccc(NC(C)=O)c3C2=O)nc1OCC` [Compound 718, (S)—N-(2-(1-(6-ethoxy-5-d3-methoxypyridin-2-yl)-2-(methylsulfonyl)ethyl)-7-fluoro-1,3-dioxoisoindolin-4-yl)acetamide], the results for the IC50 in assay [1], in assay [2] and in assay [3] were 0.9 nM, 3 nM and 0.7 nM, respectively.

`[2H]C([2H])([2H])Oc1ccc([C@H](CS(C)(=O)=O)N2C(=O)c3c(F)ccc(NC(C)=O)c3C2=O)nc1OCC` [Compound 719, (R)—N-(2-(1-(6-ethoxy-5-d3-methoxypyridin-2-yl)-2-(methylsulfonyl)ethyl)-7-fluoro-1,3-dioxoisoindolin-4-yl)acetamide]: the results for the IC50 in assay [1], in assay [2] and in assay [3] were 15.3 nM, 57.8 nM and 15.4 nM, respectively.

Consider `[2H]C([2H])([2H])Oc1ccc([C@@H](CS(C)(=O)=O)N2C(=O)c3cc(F)cc(NC(C)=O)c3C2=O)nc1OCC` [Compound 724, (S)—N-(2-(1-(6-ethoxy-5-d3-methoxypyridin-2-yl)-2-(methylsulfonyl)ethyl)-6-fluoro-1,3-dioxoisoindolin-4-yl)acetamide], for which the IC50 came out at 2.3 nM in assay [1], 5.7 nM in assay [2] and 3.1 nM in assay [3].

As for `[2H]C([2H])([2H])Oc1ccc([C@H](CS(C)(=O)=O)N2C(=O)c3cc(F)cc(NC(C)=O)c3C2=O)nc1OCC` [Compound 725, (R)—N-(2-(1-(6-ethoxy-5-d3-methoxypyridin-2-yl)-2-(methylsulfonyl)ethyl)-6-fluoro-1,3-dioxoisoindolin-4-yl)acetamide], the IC50 came out at 32.1 nM in assay [1], 93 nM in assay [2] and 33.5 nM in assay [3].

As for `CCOc1nc(C(CS(C)(=O)=O)N2C(=O)c3c(Cl)ccc(NC(C)=O)c3C2=O)ccc1OC` (stereo not drawn) [Compound 728, N-(7-chloro-2-(1-(6-ethoxy-5-methoxypyridin-2-yl)-2-(methylsulfonyl)ethyl)-1,3-dioxoisoindolin-4-yl)acetamide], the IC50 was determined as 0.6 nM in assay [1], 1.6 nM in assay [2] and 0.4 nM in assay [3].

Turning to `CCOc1nc([C@@H](CS(C)(=O)=O)N2C(=O)c3c(C#N)ccc(NC(C)=O)c3C2=O)ccc1OC` [Compound 732, (S)—N-(7-cyano-2-(1-(6-ethoxy-5-methoxypyridin-2-yl)-2-(methylsulfonyl)ethyl)-1,3-dioxoisoindolin-4-yl)acetamide], the IC50 was found to be 0.8 nM in assay [1], 2.4 nM in assay [2] and 1.1 nM in assay [3].

Take `CCOc1nc([C@@H](CS(C)(=O)=O)N2C(=O)c3cc(C#N)cc(NC(C)=O)c3C2=O)ccc1OC` [Compound 734, (S)—N-(6-cyano-2-(1-(6-ethoxy-5-methoxypyridin-2-yl)-2-(methylsulfonyl)ethyl)-1,3-dioxoisoindolin-4-yl)acetamide]: the figures for the IC50 in assay [1], in assay [2] and in assay [3] were 5.6 nM, 17.8 nM and 13 nM, respectively.

With `CCOc1nc(C(CS(C)(=O)=O)N2C(=O)c3cccc(NS(C)(=O)=O)c3C2=O)ccc1OC` (stereo not drawn) [Compound 737, N-(2-(1-(6-ethoxy-5-methoxypyridin-2-yl)-2-(methylsulfonyl)ethyl)-1,3-dioxoisoindolin-4-yl)methanesulfonamide], the figures for the IC50 in assay [1], in assay [2] and in assay [3] were 51.8 nM, 136 nM and 35.9 nM, respectively.

Turning to `CCOc1nc(C(CS(C)(=O)=O)N2C(=O)c3cccc(NC(=O)CO)c3C2=O)ccc1OC` (stereo not drawn) [Compound 739, N-(2-(1-(6-ethoxy-5-methoxypyridin-2-yl)-2-(methylsulfonyl)ethyl)-1,3-dioxoisoindolin-4-yl)-2-hydroxyacetamide], the IC50 in assay [1] is 14.5 nM; in assay [2], 36.3 nM; in assay [3], 10.9 nM.

Regarding `CCOc1nc(C(CS(C)(=O)=O)N2C(=O)c3cccc(NC(=O)COCc4ccccc4)c3C2=O)ccc1OC` (stereo not drawn) [Compound 742, 2-(benzyloxy)-N-(2-(1-(6-ethoxy-5-methoxypyridin-2-yl)-2-(methylsulfonyl)ethyl)-1,3-dioxoisoindolin-4-yl)acetamide], the IC50 in assay [1] turned out to be 2.4 nM; in assay [2] it was 6.2 nM; in assay [3], 2.6 nM.
